# Test results taken from patent US7625902B2, “Imidazolidinone derivatives” (Hoffmann-La Roche Inc., priority 2007, dated 2009).
# Assays:
# [1] = biological target: T1, human LXR alpha ligand binding domain (LXRα-LBD) (Homo sapiens, UniProt Q13133); assay: Radioligand binding assay (SPA), LXR alpha; settings: LXRα-LBD on SPA beads, read-out: LXRalpha Binding IC50
# T1 construct: human LXR alpha (aa 164 to 447); unspecified tag ('tagged versions'); made in house; host or cells: E. coli BL21 (pLysS)
# T1 sequence (Q13133 164-447): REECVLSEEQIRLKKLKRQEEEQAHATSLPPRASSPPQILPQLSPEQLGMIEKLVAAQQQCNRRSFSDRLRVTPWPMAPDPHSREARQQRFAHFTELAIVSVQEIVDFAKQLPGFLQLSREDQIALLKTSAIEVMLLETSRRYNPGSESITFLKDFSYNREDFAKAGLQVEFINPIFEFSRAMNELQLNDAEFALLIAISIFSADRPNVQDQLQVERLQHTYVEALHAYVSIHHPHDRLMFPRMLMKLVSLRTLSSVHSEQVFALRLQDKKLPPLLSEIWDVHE
# Experimental: (§1) The following tests were carried out in order to determine the activity of the compounds of the present invention. Background information on the performed assays can be found in: Nichols J S et al. “Development of a scintillation proximity assay for peroxisome proliferator-activated receptor gamma ligand binding domain”, Anal Biochem. 1998, 257: 112-119.
# (§2) Mammalian expression vectors were constructed to express full-length human LXR alpha and LXR beta. Bacterial expression vectors were constructed to produce tagged versions of the ligand binding domains (LBD) of human LXR alpha (aa 164 to 447) and human LXR beta (aa 155 to 460). To accomplish this, the portions of the sequences encoding the LBDs were amplified from the full-length clones by PCR and then subcloned into the plasmid vectors. Final clones were verified by DNA sequence analysis (Willy et al., Genes Dev. 1995, 9:1033-45; Song et al., Proc Natl Acad Sci USA.1994, 91:10809-13).
# (§3) Induction, expression, and purification of LBD proteins were performed in E. coli strain BL21 (pLysS) cells by standard methods (Ref: Current Protocols in Molecular Biology, Wiley Press, edited by Ausubel et al).
# (§4) Radioligand Binding Assay
# (§5) LXR alpha and LXR beta receptor binding were assayed in buffer consisting of 50 mM HEPES, pH 7.4, 10 mM NaCl, 5 mM MgCl2. For each 96-well reaction, 500 ng of LXRα-LBD or 700 ng of LXR beta-LBD proteins were bound to 80 μg or 40 μg SPA beads respectively, in a final volume of 50 μl by shaking. The resulting slurry was incubated for 1 h at RT and centrifuged for 2 min at 1300×g. The supernatant containing unbound protein was removed, and the semi-dry pellet containing the receptor-coated beads was re-suspended in 50 μl of buffer. […] All binding assays were performed in 96-well plates and the amount of bound ligand was measured on a Packard TopCount using OptiPlates (Packard). Dose response curves were measured within a range of concentration from 10^−10 M to 10^−4 M.
# [2] = biological target: T2, human LXR beta ligand binding domain (LXR beta-LBD) (Homo sapiens, UniProt P55055); assay: Radioligand binding assay (SPA), LXR beta; settings: LXR beta-LBD on SPA beads, read-out: LXRbeta Binding IC50
# T2 construct: human LXR beta (aa 155 to 460); unspecified tag ('tagged versions'); made in house; host or cells: E. coli BL21 (pLysS)
# T2 sequence (P55055 155-460): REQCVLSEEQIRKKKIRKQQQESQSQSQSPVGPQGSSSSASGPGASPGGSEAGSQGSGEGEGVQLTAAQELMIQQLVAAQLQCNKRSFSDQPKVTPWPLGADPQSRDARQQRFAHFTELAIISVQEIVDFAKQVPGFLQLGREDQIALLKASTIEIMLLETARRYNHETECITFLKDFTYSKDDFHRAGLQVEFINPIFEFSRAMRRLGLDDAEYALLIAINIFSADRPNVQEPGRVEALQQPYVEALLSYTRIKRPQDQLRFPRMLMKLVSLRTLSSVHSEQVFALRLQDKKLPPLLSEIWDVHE
# Experimental: as §1, §2, §3, §4, §5
IC50 [1],IC50 [2],SMILES
2500 nM,240 nM,"O=C(C1CN(S(=O)(=O)c2ccccc2)C(=O)N1c1ccccc1Cl)N1CCN(c2ncccc2Cl)CC1 (racemic) [Example 63, (RS)-1-Benzenesulfonyl-3-(2-chloro-phenyl)-4-[4-(3-chloro-pyridin-2-yl)-piperazine-1-carbonyl]-imidazolidin-2-one]"
260 nM,100 nM,"Cc1ccc(C)c(N2CCN(C(=O)[C@@H]3CN(S(=O)(=O)c4ccccc4)C(=O)N3c3ccccc3Cl)CC2)c1 [Example 50, (S)-1-Benzenesulfonyl-3-(2-chloro-phenyl)-4-[4-(2,5-dimethyl-phenyl)-piperazine-1-carbonyl]-imidazolidin-2-one]"
5500 nM,480 nM,"O=C(C1CN(S(=O)(=O)c2ccccc2)C(=O)N1C1CCCCC1)N1CCN(c2ncccc2C(F)(F)F)CC1 (racemic) [Example 39, (RS)-1-Benzenesulfonyl-3-cyclohexyl-4-[4-(3-trifluoromethyl-pyridin-2-yl)-piperazine-1-carbonyl]-imidazolidin-2-one]"
